From paper PMC6099557, “Cholinesterase Inhibition Activity, Alkaloid Profiling and Molecular Docking of Chilean Rhodophiala (Amaryllidaceae)” (Molecules : A Journal of Synthetic Chemistry and Natural …, 2018)
pIC50: −log10 of the molar value. In brackets after ≈: the same amount, converted by molar mass. Read-outs that look alike come from different tables or passages of the source.

Tests used:
human erythrocye AChE = conditions: human erythrocyte AChE, tested 0.5–500 μg/mL, cited from earlier work
BuChE from equine serum = target: T1, BuChE from equine serum (Equus caballus, UniProt P81908); assay: biochemical; conditions: for pIC50: BuChE inhibitory activity IC50, single alkaloids and reference galanthamine; for IC50: single alkaloids and reference galanthamine, read-out: BuChE inhibitory activity IC50 (converted)
T1 construct: BuChE from equine serum (Merck, Darmstadt, Germany); purchased Merck, Darmstadt, Germany; host or cells: equine serum
Method: (§1) Cholinesterase inhibitory activities were determined according to [35] with some modifications. Stock solutions with 518U of AchE from Electrophorus electricus (Merck, Darmstadt, Germany) and BuChE from equine serum (Merck, Darmstadt, Germany), respectively, were prepared and kept at −20 °C. Acetylthiocholine iodide (ATCI), S-butyrylthiocholine iodide (BTCI) and 5,5′-dithiobis (2-nitrobenzoic acid) (DTNB) were obtained from Merck (Darmstadt, Germany). Fifty microliters of AChE or BuChE (both enzymes used at 6.24 U) in phosphate buffer (8 mM K2HPO4, 2.3 mM NaH2PO4, 0.15 NaCl, pH 7.5) and 50 μL of the sample dissolved in the same buffer were added to the wells. The plates were incubated for 30 min at room temperature. Then, 100 μL of the substrate solution (0.1 M Na2HPO4, […], and 0.6 mM ATCI or 0.24 mM BTCI in Millipore water, pH 7.5) was added. After 10 min, the absorbance was read at 405 nm in a Labsystem microplate reader (Thermo Fischer, Waltham, MA, USA). Enzyme activity was calculated as percent compared to a control using buffer without any inhibitor. […] In a first step, samples were assessed at 10, 100 and 200 μg/mL towards both enzymes. […] The cholinesterase inhibitory data were analyzed with the software Microsoft Office Excel 2010 (Microsoft, Redmond, WA, USA).

human serum BuChE = conditions: tested 0.5–500 μg/mL, cited from earlier work
[1] = tested on: panel of eight human cancer cell lines; conditions: cited from earlier work
E. coli ATCC 24922 = conditions: cited from earlier work
P. aeruginosa ATCC 27853 = conditions: cited from earlier work
[2] = tested on: multi-drug resistant breast cell line NCLADR; conditions: montanine at 2.5 μg/mL; cited from earlier work
S. aureus ATCC 6538 = conditions: cited from earlier work
[3] = target: T2, AchE from Electrophorus electricus (Electrophorus electricus, UniProt O42275); assay: biochemical; conditions: AChE inhibitory activity IC50, single alkaloids and reference galanthamine; electric eel AChE
T2 construct: purchased Merck, Darmstadt, Germany
Method: as §1

T1 sequence (P81908 whole entry): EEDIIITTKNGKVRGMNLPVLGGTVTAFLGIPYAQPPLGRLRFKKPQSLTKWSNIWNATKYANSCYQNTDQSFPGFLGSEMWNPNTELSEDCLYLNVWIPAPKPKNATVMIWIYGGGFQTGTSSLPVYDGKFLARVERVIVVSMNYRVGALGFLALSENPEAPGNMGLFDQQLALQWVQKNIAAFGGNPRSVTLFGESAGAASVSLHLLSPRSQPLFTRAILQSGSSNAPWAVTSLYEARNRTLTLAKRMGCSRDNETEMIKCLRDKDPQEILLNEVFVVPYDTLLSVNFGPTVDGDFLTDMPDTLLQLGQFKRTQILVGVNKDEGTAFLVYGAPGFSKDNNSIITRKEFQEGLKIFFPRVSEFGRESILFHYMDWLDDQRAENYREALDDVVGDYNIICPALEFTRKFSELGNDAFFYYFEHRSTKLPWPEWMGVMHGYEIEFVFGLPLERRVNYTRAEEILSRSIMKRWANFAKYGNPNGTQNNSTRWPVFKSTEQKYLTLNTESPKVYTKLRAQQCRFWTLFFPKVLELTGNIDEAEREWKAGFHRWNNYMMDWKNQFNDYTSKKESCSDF
T2 sequence (O42275 24-633): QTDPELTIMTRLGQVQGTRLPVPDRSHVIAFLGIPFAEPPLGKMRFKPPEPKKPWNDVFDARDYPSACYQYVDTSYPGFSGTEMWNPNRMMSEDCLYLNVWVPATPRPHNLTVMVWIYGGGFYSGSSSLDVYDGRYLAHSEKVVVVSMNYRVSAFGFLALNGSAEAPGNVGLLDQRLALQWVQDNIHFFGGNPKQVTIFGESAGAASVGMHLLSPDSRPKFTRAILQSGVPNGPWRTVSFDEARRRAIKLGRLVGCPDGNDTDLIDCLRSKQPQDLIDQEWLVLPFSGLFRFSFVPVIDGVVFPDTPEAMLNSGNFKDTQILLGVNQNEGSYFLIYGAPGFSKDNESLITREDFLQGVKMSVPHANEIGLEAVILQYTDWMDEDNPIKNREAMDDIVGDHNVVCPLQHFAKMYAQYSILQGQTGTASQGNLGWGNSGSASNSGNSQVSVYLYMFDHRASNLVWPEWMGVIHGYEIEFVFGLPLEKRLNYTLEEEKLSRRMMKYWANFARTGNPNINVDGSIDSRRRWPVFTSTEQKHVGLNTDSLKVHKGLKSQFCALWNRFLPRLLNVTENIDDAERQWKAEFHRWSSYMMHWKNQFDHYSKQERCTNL

Compound: O[C@H]1[C@H]2c3cc4c(cc3CN3CCC(=C[C@@H]1O)[C@H]23)OCO4 [lycorine (9), lycorine]
- Activity on human AChE (in words) (human erythrocye AChE): not active
- pIC50 (BuChE from equine serum): < 3.16
- Activity on human BuChE (in words) (human serum BuChE): not active

Compound: CO[C@H]1C=C2[C@H]3C[N@@](Cc4cc5c(cc43)OCO5)[C@H]2C[C@@H]1O [montanine]
- Activity towards a panel of eight human cancer cell lines [1]: showed activity
- MIC (E. coli ATCC 24922): 5 µg/mL (≈ 16.6 µM)
- MIC (P. aeruginosa ATCC 27853): 20 µg/mL (≈ 66.4 µM)
- Activity on NCLADR compared with doxorubicine [2]: more active than doxorubicine
- MIC (S. aureus ATCC 6538): 5 µg/mL (≈ 16.6 µM)

Compound: COc1cc2c(cc1O)CN1CC[C@@]23C=C[C@@H](O)C[C@H]13 [8-O-demethylmaritidine (16), 8-O-demethylmaritidine]
- Activity on human AChE (in words) (human erythrocye AChE): presented activity
- pIC50 (BuChE from equine serum): 3.33
- pIC50 [3]: 3.38
- Activity on human BuChE (in words) (human serum BuChE): inactive

Compound: OC1C=CC23c4cc5c(cc4CN(CC2O)C3C1)OCO5 (centres unmarked) [hamayne (20b), hamayne]
- Activity on human AChE (in words) (human erythrocye AChE): presented activity
- IC50 (BuChE from equine serum): 168 µM
- Activity on human BuChE (in words) (human serum BuChE): inactive

Compound: OC1C=CC23c4cc5c(cc4CN(CC2O)C3C1)OCO5 (centres unmarked) [11-hydroxyvittatine (20a), 11-hydroxyvittatine]
- Activity on human AChE (in words) (human erythrocye AChE; listed as 11-hydroxyvitattine): not active
- IC50 (BuChE from equine serum): > 696 µM
- Activity on human BuChE (in words) (human serum BuChE; listed as 11-hydroxyvitattine): not active

Compound: COc1cc2c(cc1O)C13CCC(O)CC1N(CC3)C2 (centres unmarked) [deacetylcantabricine (17), deacetylcantabricine]
- pIC50 (BuChE from equine serum): < 3.14
- pIC50 [3]: < 3.14

Compound: COC1C=CC23c4cc5c(cc4CN(CC2O)C3C1)OCO5 (centres unmarked) [haemanthamine (18a), haemanthamine]
- Activity on human AChE (in words) (human erythrocye AChE): not active
- pIC50 (BuChE from equine serum): < 3.18
- Activity on human BuChE (in words) (human serum BuChE): not active
